According to patent US8993304B2, “Chloramphenicol resistance selection in Bacillus licheniformis” (Novozymes A/S, priority 2006, dated 2015):

Legend:
Format in all cases: cell-based, Bacillus licheniformis
control strain = test: Growth on reisolation onto LPBSG plates with chloramphenicol; settings: LPBSG plates with 10 mikrogram/ml chloramphenicol
[1] = tested on: cat-deleted recipient strains; test: Transconjugant selection on chloramphenicol plates; settings: cat-deleted recipients (SJ8071, SJ8344); donor SJ8000; chloramphenicol 6 microgram/ml; 30° C. overnight
Procedure: (§1) B. licheniformis strains PP1897-3, the cat-deleted derivative SJ8071, strain ATCC14580, and the cat-deleted derivative SJ8344 were used as recipients in conjugations with donor strain SJ8000, essentially as described before.
(§2) For each donor/recipient combination, donor and recipient colonies were scraped off overnight plates and mixed in a small volume of liquid TY medium, and equal volumes from this mixture was plated on each of two LBPGS plates with D-alanine. Following 6 hours incubation at 30° C., one plate was replicaplated onto LBPGS with erythromycin (2 microgram/ml), and the other plate replica plated onto LPPGS with chloramphenicol (6 microgram/ml). These plates were incubated at 30° C. overnight, then left at room temperature (20-25° C.) for further 3 days.

[2] = tested on: recipient strains containing intact, chromosomal chloramphenicol resistance genes; test: Transconjugant selection on chloramphenicol plates; settings: recipients with intact chromosomal cat (PP1897-3, ATCC14580); donor SJ8000; chloramphenicol 6 microgram/ml; 30° C. overnight
Procedure: as §1, §2

SJ8072 = test: Growth on reisolation onto LPBSG plates with chloramphenicol; settings: SJ8072 deletion strain; LPBSG plates with 10 mikrogram/ml chloramphenicol
SJ8071 = test: as above; settings: SJ8071 deletion strain; LPBSG plates with 10 mikrogram/ml chloramphenicol
[3] = tested on: SJ8344 (=ATCC14580 delta cat); test: Test of chloramphenicol resistance, growth in liquid TY+glucose culture; settings: 30° C.
Procedure: (§3) Strains PP1897-3, SJ8071 (=PP1897-3 delta cat), ATCC14580, and SJ8344 (=ATCC14580 delta cat) were propagated in 10 ml TY (WO 94/14968, p16) supplemented with 0.5% glucose at 30° C. overnight, with shaking. 50 microliter aliquots were used to inoculate further 10 ml TY+glucose cultures, supplemented with chloramphenicol (cam) to concentrations: 1 microgram/ml, 2 microgram/ml, 3 microgram/ml, 6 microgram/ml, 9 microgram/ml, or 12 microtram/ml, and incubation with shaking continued at 30° C. Growth was scored by visual inspection of turbidity after approximately 7 hours (table 1), and again after overnight incubation (table 2).

PP1897-3 = test: as above; settings: 30° C.
Procedure: as §3

ATCC14580 = test: as above; settings: 30° C.
Procedure: as §3

[4] = tested on: SJ8071 (=PP1897-3 delta cat); test: as above; settings: 30° C.
Procedure: as §3

[5] = 1 μg/ml cam, after 7 hours incubation
[6] = 1 μg/ml cam, after overnight incubation
[7] = 2 μg/ml cam, after 7 hours incubation
[8] = 2 μg/ml cam, after overnight incubation
[9] = 3 μg/ml cam, after 7 hours incubation
[10] = 3 μg/ml cam, after overnight incubation
[11] = 6 μg/ml cam, after 7 hours incubation
[12] = 6 μg/ml cam, after overnight incubation
[13] = 9 μg/ml cam, after 7 hours incubation
[14] = 9 μg/ml cam, after overnight incubation
[15] = 12 μg/ml cam, after 7 hours incubation
[16] = 12 μg/ml cam, after overnight incubation

With `O=C(N[C@H](CO)[C@H](O)c1ccc([N+](=O)[O-])cc1)C(Cl)Cl` [cam, chloramphenicol] the “Growth when reisolated onto plates” value (control strain) was “some growth”, the “Transconjugant colonies using chloramphenicol selection” value [1] was “Distinct transconjugant colonies” and the “Transconjugant colonies using chloramphenicol selection” value [2] was “No distinct transconjugant colonies”. For the same molecule, the “Growth when reisolated onto plates” value (SJ8072) was “absolutely no growth”, the “Growth when reisolated onto plates” value (SJ8071) was “absolutely no growth” and the “Growth scored by visual inspection of turbidity” value (shortened to “Growth scored”) [3, 5] was “+”. The “Growth scored” value [3, 6] was “++”, the “Growth scored” value [3, 7] was “−” and the “Growth scored” value [3, 8] was “++”. For the same molecule, the “Growth scored” value [3, 9] was “−”, the “Growth scored” value [3, 10] was “++” and the “Growth scored” value [3, 11] was “−”. The “Growth scored” value [3, 12] was “+”, the “Growth scored” value [3, 13] was “−” and the “Growth scored” value [3, 14] was “+”. For the same molecule, the “Growth scored” value [3, 15] was “−”, the “Growth scored” value [3, 16] was “+” and the “Growth scored” value (PP1897-3; [5]) was “++”. For the same molecule, the “Growth scored” value (PP1897-3; [6]) was “++”, the “Growth scored” value (PP1897-3; [7]) was “++” and the “Growth scored” value (PP1897-3; [8]) was “++”. The “Growth scored” value (PP1897-3; [9]) was “+”, the “Growth scored” value (PP1897-3; [10]) was “++” and the “Growth scored” value (PP1897-3; [11]) was “−”. For the same molecule, the “Growth scored” value (PP1897-3; [12]) was “++”, the “Growth scored” value (PP1897-3; [13]) was “−” and the “Growth scored” value (PP1897-3; [14]) was “++”. For the same molecule, the “Growth scored” value (PP1897-3; [15]) was “−”, the “Growth scored” value (PP1897-3; [16]) was “+” and the “Growth scored” value (ATCC14580; [5]) was “++”. The “Growth scored” value (ATCC14580; [6]) was “++”, the “Growth scored” value (ATCC14580; [7]) was “+” and the “Growth scored” value (ATCC14580; [8]) was “++”. For the same molecule, the “Growth scored” value (ATCC14580; [9]) was “+”, the “Growth scored” value (ATCC14580; [10]) was “++” and the “Growth scored” value (ATCC14580; [11]) was “−”. For the same molecule, the “Growth scored” value (ATCC14580; [12]) was “++”, the “Growth scored” value (ATCC14580; [13]) was “−” and the “Growth scored” value (ATCC14580; [14]) was “++”. For the same molecule, the “Growth scored” value (ATCC14580; [15]) was “−”, the “Growth scored” value (ATCC14580; [16]) was “+” and the “Growth scored” value [4, 5] was “+”. The “Growth scored” value [4, 6] was “++”, the “Growth scored” value [4, 7] was “−” and the “Growth scored” value [4, 8] was “++”. For the same molecule, the “Growth scored” value [4, 9] was “−”, the “Growth scored” value [4, 10] was “++” and the “Growth scored” value [4, 11] was “−”. The “Growth scored” value [4, 12] was “+”, the “Growth scored” value [4, 13] was “−” and the “Growth scored” value [4, 14] was “+”. For the same molecule, the “Growth scored” value [4, 15] was “−” and the “Growth scored” value [4, 16] was “+”.
